Source: US8883826B2, “Alkynyl derivatives as modulators of metabotropic glutamate receptors” (Addex Pharma SA, priority 2004, dated 2014)

molecular target: T1, mGluR5 (Rattus norvegicus, UniProt P31424); test: mGluR5 binding assay ([3H]-MPEP radioligand competition); conditions: competition with 3 nM [3H]-MPEP, rat brain cortical membranes, 1 h at 4 °C; mean of at least three independent experiments in duplicate
T1 construct: tissue Charles River Laboratories; host or cells: rat brain cortex membranes (Sprague-Dawley)
T1 sequence (P31424 21-1203): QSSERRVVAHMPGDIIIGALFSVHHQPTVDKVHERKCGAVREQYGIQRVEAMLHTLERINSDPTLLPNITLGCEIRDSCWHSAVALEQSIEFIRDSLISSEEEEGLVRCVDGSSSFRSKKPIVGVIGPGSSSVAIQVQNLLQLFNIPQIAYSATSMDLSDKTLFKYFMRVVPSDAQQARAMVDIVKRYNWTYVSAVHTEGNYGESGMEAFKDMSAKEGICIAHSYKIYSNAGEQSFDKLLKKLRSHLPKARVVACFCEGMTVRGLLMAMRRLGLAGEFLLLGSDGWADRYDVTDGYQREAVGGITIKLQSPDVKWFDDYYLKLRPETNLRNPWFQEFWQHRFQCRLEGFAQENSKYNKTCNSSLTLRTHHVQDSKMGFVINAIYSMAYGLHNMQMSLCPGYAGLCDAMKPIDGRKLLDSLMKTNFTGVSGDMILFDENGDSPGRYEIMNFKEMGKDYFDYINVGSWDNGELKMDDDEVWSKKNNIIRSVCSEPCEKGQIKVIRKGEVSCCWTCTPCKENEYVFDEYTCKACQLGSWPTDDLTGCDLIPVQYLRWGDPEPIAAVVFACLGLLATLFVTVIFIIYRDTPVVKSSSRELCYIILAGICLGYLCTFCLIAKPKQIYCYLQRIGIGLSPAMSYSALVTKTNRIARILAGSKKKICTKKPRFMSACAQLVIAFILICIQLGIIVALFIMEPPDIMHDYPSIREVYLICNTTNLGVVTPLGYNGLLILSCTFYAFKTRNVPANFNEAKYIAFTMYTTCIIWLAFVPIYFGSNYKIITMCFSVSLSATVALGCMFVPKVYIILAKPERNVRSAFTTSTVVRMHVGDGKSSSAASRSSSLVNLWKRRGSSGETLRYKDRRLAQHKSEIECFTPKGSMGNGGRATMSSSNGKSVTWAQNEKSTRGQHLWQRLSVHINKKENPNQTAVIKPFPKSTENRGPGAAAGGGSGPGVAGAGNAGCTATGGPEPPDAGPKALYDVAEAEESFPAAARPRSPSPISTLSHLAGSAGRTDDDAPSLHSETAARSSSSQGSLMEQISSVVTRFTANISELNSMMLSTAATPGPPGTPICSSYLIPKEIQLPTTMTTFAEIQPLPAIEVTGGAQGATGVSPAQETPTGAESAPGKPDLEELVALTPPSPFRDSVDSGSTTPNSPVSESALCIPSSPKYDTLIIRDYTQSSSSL
Description: Activity of compounds of the invention was examined following a radioligand binding technique using whole rat brain and tritiated 2-methyl-6-(phenylethynyl)-pyridine ([^3H]-MPEP) as a ligand following similar methods than those described in F. Gasparini et al. Bioorg. Med. Chem. Lett. 2002, 12, 407-409 and in J. F. Anderson et al. J. Pharmacol. Exp. Ther. 2002, 303, 3, 1044-1051.
Cortices were dissected out from brains of 200-300 g Sprague-Dawley rats (Charles River Laboratories, L'Arbresle, France). Tissues were homogenized in 10 volumes (vol/wt) of ice-cold 50 mM Hepes-NaOH (pH 7.4) using a Polytron disrupter (Kinematica AG, Luzern, Switzerland) and centrifuged for 30 min at 40,000 g. (4° C.). The supernatant was discarded and the pellet washed twice by resuspension in 10 volumes 50 mM HEPES-NaOH. Membranes were then collected by centrifugation and washed before final resuspension in 10 volumes of 20 mM HEPES-NaOH, pH 7.4. Protein concentration was determined by the Bradford method (Bio-Rad protein assay, Reinach, Switzerland) with bovine serum albumin as standard.
[^3H]-MPEP Binding Experiments:
Membranes were thawed and resuspended in binding buffer containing 20 mM HEPES-NaOH, 3 mM MgCl2, 3 mM CaCl2, 100 mM NaCl, pH 7.4. Competition studies were carried out by incubating for 1 h at 4° C.: 3 nM [^3H]-MPEP (39 Ci/mmol, Tocris, Cookson Ltd, Bristol, U.K.), 50 μg membrane and a concentration range of 0.003 nM-30 μM of compounds, for a total reaction volume of 300 μl. The non-specific binding was defined using 30 μM MPEP. Reaction was terminated by rapid filtration over glass-fiber filter plates (Unifilter 96-well GF/B filter plates, Perkin-Elmer, Schwerzenbach, Switzerland) using 4×400 μl ice cold buffer using cell harvester (Filtermate, Perkin-Elmer, Downers Grove, USA). Radioactivity was determined by liquid scintillation spectrometry using a 96-well plate reader (TopCount, Perkin-Elmer, Downers Grove, USA).
The inhibition curves were generated using the Prism GraphPad program (Graph Pad Software Inc, San Diego, USA). IC50 determinations were made from data obtained from 8 point-concentration response curves using a non linear regression analysis.
The table below represents the mean of IC50 obtained from at least three independent experiments of selected molecules performed in duplicate.

| SMILES | IC50 |
| --- | --- |
| Cc1nc(C#CCCc2nc3cc(F)cc(Cl)c3o2)cs1 [Example 80, 7-Chloro-5-fluoro-2-(4-(2-methylthiazol-4-yl)but-3-ynyl)benzo[d]oxazole] | < 0.05 µM |
| FC(F)(F)c1cccc2nc(CCC#Cc3ccccn3)oc12 [Example 81, 7-(Trifluoromethyl)-2-(4-(pyridin-2-yl)but-3-ynyl)benzo[d]oxazole] | < 0.05 µM |
| Fc1cc(Br)c2oc(CCC#Cc3ccccn3)nc2c1 [Example 82, 7-Bromo-5-fluoro-2-(4-(pyridin-2-yl)but-3-ynyl)benzo[d]oxazole] | < 0.05 µM |
| Fc1cc(-c2ccccc2)c2oc(CCC#Cc3ccccn3)nc2c1 [Example 83, 5-Fluoro-7-phenyl-2-(4-(pyridin-2-yl)but-3-ynyl)benzo[d]oxazole] | < 10 µM |
| Clc1nccc(C#CCCc2nc3ccccc3o2)n1 [Example 84, 2-(4-(2-Chloropyrimidin-4-yl)but-3-ynyl)benzo[d]oxazole] | < 10 µM |
| Brc1cccc2oc(CCC#Cc3ccccn3)nc12 [Example 86, 4-Bromo-2-(4-(pyridin-2-yl)but-3-ynyl)benzo[d]oxazole] | < 0.05 µM |
| C(#Cc1ccccn1)CCc1nc2c(-c3ccccc3)cccc2o1 [Example 87, 4-Phenyl-2-(4-(pyridin-2-yl)but-3-ynyl)benzo[d]oxazole] | < 10 µM |
| Clc1cccc2oc(CCC#Cc3ccccn3)nc12 [Example 88, 4-Chloro-2-(4-(pyridin-2-yl)but-3-ynyl)benzo[d]oxazole] | < 0.05 µM |
| Cc1cccc2nc(CCC#Cc3ccccn3)oc12 [Example 91, 7-Methyl-2-(4-(pyridin-2-yl)but-3-ynyl)benzo[d]oxazole] | < 0.05 µM |
| COc1cccc2nc(CCC#Cc3ccccn3)oc12 [Example 94, 7-Methoxy-2-(4-(pyridin-2-yl)but-3-ynyl)benzo[d]oxazole] | < 0.05 µM |
| CC(C)c1cccc2nc(CCC#Cc3ccccn3)oc12 [Example 95, 7-Isopropyl-2-(4-(pyridin-2-yl)but-3-ynyl)benzo[d]oxazole] | < 10 µM |
| Fc1ccc(F)c2oc(CCC#Cc3ccccn3)nc12 [Example 96, 4,7-Difluoro-2-(4-(pyridin-2-yl)but-3-ynyl)benzo[d]oxazole] | < 0.05 µM |
| Fc1ccc(C(F)(F)F)c2nc(CCC#Cc3ccccn3)oc12 [Example 97, 7-Fluoro-4-(trifluoromethyl)-2-(4-(pyridin-2-yl)but-3-ynyl)benzo[d]oxazole] | < 10 µM |
| C(#Cc1ccncn1)CCc1nc2ccccc2o1 [Example 98, 2-(4-(Pyrimidin-4-yl)but-3-ynyl)benzo[d]oxazole] | < 10 µM |
| CN(C(=O)CCC#Cc1ccccn1)c1cccc(Cl)c1 [Example 99, N-(3-Chlorophenyl)-N-methyl-5-(pyridin-2-yl)pent-4-ynamide] | < 10 µM |
| Cc1ccc(Cl)c2sc(CCC#Cc3ccccn3)nc12 [Example 100, 7-Chloro-4-methyl-2-(4-(pyridin-2-yl)but-3-ynyl)benzo[d]thiazole] | < 10 µM |
| Fc1cccc2sc(CCC#Cc3ccccn3)nc12 [Example 101, 4-Fluoro-2-(4-(pyridin-2-yl)but-3-ynyl)benzo[d]thiazole] | < 0.05 µM |
| Cc1ccc(C)c2sc(CCC#Cc3ccccn3)nc12 [Example 102, 4,7-Dimethyl-2-(4-(pyridin-2-yl)but-3-ynyl)benzo[d]thiazole] | < 10 µM |
| Cc1cccc2sc(CCC#Cc3ccccn3)nc12 [Example 103, 4-Methyl-2-(4-(pyridin-2-yl)but-3-ynyl)benzo[d]thiazole] | < 0.05 µM |
| Fc1ccc2sc(CCC#Cc3ccccn3)nc2c1 [Example 104, 5-Fluoro-2-(4-(pyridin-2-yl)but-3-ynyl)benzo[d]thiazole] | < 0.05 µM |
| Clc1cccc2sc(CCC#Cc3ccccn3)nc12 [Example 105, 4-Chloro-2-(4-(pyridin-2-yl)but-3-ynyl)benzo[d]thiazole] | < 0.05 µM |
| Cn1c(CCC#Cc2ccccn2)nc2ccccc21 [Example 107, 1-Methyl-2-(4-(pyridin-2-yl)but-3-ynyl)-1H-benzo[d]imidazole] | < 0.5 µM |
| C(#Cc1ccccn1)CCn1cc2ccccc2n1 [Example 108, 2-(4-(Pyridin-2-yl)but-3-ynyl)-2H-indazole] | < 0.5 µM |

| SMILES | IC50 |
| --- | --- |
| C(#Cc1ccccn1)CCn1nc2ccccc2n1 [Example 109, 2-(4-(Pyridin-2-yl)but-3-ynyl)-2H-benzo[d][1,2,3]triazole] | < 0.5 µM |
| C(#Cc1ccccn1)CCc1cc(-c2ccccc2)no1 [Example 111, 2-(4-(3-Phenylisoxazol-5-yl)but-1-ynyl)pyridine] | < 10 µM |
| Cc1nc(C#CCCc2nc3ccccc3s2)cs1 [Example 112, 2-(4-(2-Methylthiazol-4-yl)but-3-ynyl)benzo[d]thiazole] | < 0.05 µM |
| Fc1ccc(C#CCCc2nc3ccccc3s2)nc1 [Example 113, 2-(4-(5-Fluoropyridin-2-yl)but-3-ynyl)benzo[d]thiazole] | < 10 µM |
| Cc1cccc(C#CCCc2nc3ccccc3s2)n1 [Example 114, 2-(4-(6-Methylpyridin-2-yl)but-3-ynyl)benzo[d]thiazole] | < 0.05 µM |
| Fc1ccc(Cl)c2sc(CCC#Cc3ccccn3)nc12 [Example 116, 7-Chloro-4-fluoro-2-(4-(pyridin-2-yl)but-3-ynyl)benzo[d]thiazole] | < 0.05 µM |
| Fc1cccc(C#CCCc2nc3ccccc3s2)n1 [Example 117, 2-(4-(6-Fluoropyridin-2-yl)but-3-ynyl)benzo[d]thiazole] | < 10 µM |
| C(#Cc1ccccn1)CCc1ccc2ccccc2n1 [Example 118, 2-(4-(Pyridin-2-yl)but-3-ynyl)quinoline] | < 0.5 µM |
| Cn1ccc(C#CCCc2nc3ccccc3s2)n1 [Example 121, 2-(4-(1-Methyl-1H-pyrazol-3-yl)but-3-ynyl)benzo[d]thiazole] | < 10 µM |
| C(#Cc1ccccn1)CCn1cc(-c2ccccc2)cn1 [Example 122, 2-(4-(4-Phenyl-1H-pyrazol-1-yl)but-1-ynyl)pyridine] | < 10 µM |
| Clc1cccc2cn(CCC#Cc3ccccn3)nc12 [Example 123, 7-Chloro-2-(4-(pyridin-2-yl)but-3-ynyl)-2H-indazole] | < 10 µM |
| C(#Cc1ccccn1)CCCCn1nc2ccccc2n1 [Example 124, 2-(6-(Pyridin-2-yl)hex-5-ynyl)-2H-benzo[d][1,2,3]triazole] | < 10 µM |
| Fc1ccc2nn(CCC#Cc3ccccn3)nc2c1 [Example 127, 5-Fluoro-2-(4-(pyridin-2-yl)but-3-ynyl)-2H-benzo[d][1,2,3]triazole] | < 10 µM |
| Cc1cccc(C#CCCc2ccc3ccccc3n2)n1 [Example 128, 2-(4-(6-Methylpyridin-2-yl)but-3-ynyl)quinoline] | < 0.05 µM |
| FCc1cccc(C#CCCn2cc3ccccc3n2)n1 [Example 133, 2-(4-(6-(Fluoromethyl)pyridin-2-yl)but-3-ynyl)-2H-indazole] | < 10 µM |
| Fc1cc(F)c2nn(CCC#Cc3ccccn3)nc2c1 [Example 135, 4,6-Difluoro-2-(4-(pyridin-2-yl)but-3-ynyl)-2H-benzo[d][1,2,3]triazole] | < 10 µM |
| Fc1ccc2nn(CCC#Cc3ccccn3)nc2c1F [Example 136, 4,5-Difluoro-2-(4-(pyridin-2-yl)but-3-ynyl)-2H-benzo[d][1,2,3]triazole] | < 10 µM |
| Cc1cccc(C#CCCn2nc3ccccc3n2)n1 [Example 137, 2-(4-(6-Methylpyridin-2-yl)but-3-ynyl)-2H-benzo[d][1,2,3]triazole] | < 0.05 µM |
| Fc1cccnc1C#CCCn1nc2ccccc2n1 [Example 138, 2-(4-(3-Fluoropyridin-2-yl)but-3-ynyl)-2H-benzo[d][1,2,3]triazole] | < 10 µM |
| FCc1cccc(C#CCCn2nc3ccc(F)cc3n2)n1 [Example 139, 5-Fluoro-2-(4-(6-(fluoromethyl)pyridin-2-yl)but-3-ynyl)-2H-benzo[d][1,2,3]triazole] | < 0.05 µM |
| Fc1ccc(-c2cnn(CCC#Cc3ccccn3)c2)cc1 [Example 140, 2-(4-(4-(4-Fluorophenyl)-1H-pyrazol-1-yl)but-1-ynyl)pyridine] | < 10 µM |
| Cc1nc(C#CCCn2nc3ccccc3n2)cs1 [Example 141, 2-(4-(2-Methylthiazol-4-yl)but-3-ynyl)-2H-benzo[d][1,2,3]triazole] | < 0.05 µM |
| Cc1ccccc1-c1cnn(CCC#Cc2ccccn2)c1 [Example 142, 2-(4-(4-o-Tolyl-1H-pyrazol-1-yl)but-1-ynyl)pyridine] | < 10 µM |
